Reference: patent US8598204B2, “1,2-dihydro-2-oxoquinoline compounds as 5-HT4 receptor ligands” (Suven Life Sciences Limited, priority 2009, dated 2013)

Columns and labels:
[1] = Rodent brain penetration study; assay type: in vivo; conditions: Wistar, rat; Wister/Male rats, 10 mg/kg, Oral, vehicle Water; brain/plasma; read-out: Steady State Brain Penetration (Cb/Cp)
Experimental: Male Wister rats (230-280 grams) obtained from NIN (National Institute of Nutrition, Hyderabad, India) was used as an experimental animal. Three animals were housed in each cage. Animals were given water and food ad libitum throughout the experiment, and maintained on a 12 hours light/dark cycle.
Brain penetration was determined in discrete manner in rats. One day prior to dosing day, male wistar rats (225-250 grams) were acclimatized. After acclimatization the rats were grouped according to the weight in each group, 3 animals were kept in individual cage and allowed free access to food and water. At each time point (0.5, 1, and 2 hours) n=3 animals were used.
NCE compound was dissolved in water and administered orally at (free base) 10 mg/kg. Blood samples were removed via, cardiac puncture by using isofurane anesthesia the animals were sacrificed to collect brain tissue. Plasma was separated and Brain samples were homogenized and stored frozen at −20° C. until analysis. The concentrations of the NCE compound in plasma and Brain were determined using LC-MS/MS method.
The NCE compounds were quantified in plasma and brain homogenate by validated LC-MS/MS method using solid phase extraction technique. NCE compounds were quantified in the calibration range of 1-500 ng/mL in plasma and brain homogenate. Study samples were analyzed using calibration samples in the batch and quality control samples spread across the batch. Extents of brain-blood ratio were calculated (Cb/Cp).

[2] = test system: novel object recognition (cognition) in rats; assay: Object recognition task model; assay type: in vivo, rat; conditions: 10 mg/kg p.o.; for Exploration time mean ± S.E.M, Familiar object / Exploration time mean ± S.E.M, Novel object: choice trial T2 24 hours after T1
Experimental: The cognition-enhancing properties of compounds of this invention were estimated using a model of animal cognition: the object recognition task model.
Male Wister rats (230-280 grams) obtained from N. I. N. (National Institute of Nutrition, Hyderabad, India) was used as experimental animals. Four animals were housed in each cage. Animals were kept on 20% food deprivation before one day and given water ad libitum throughout the experiment and maintained on a 12 hours light/dark cycle. Also the rats were habituated to individual arenas for 1 hour in the absence of any objects.
One group of 12 rats received vehicle (1 mL/Kg) orally and another set of animals received compound of the formula (I) either orally or i.p., before one hour of the familiar (T1) and choice trial (T2).
The experiment was carried out in a 50×50×50 cm open field made up of acrylic. In the familiarization phase (T1), the rats were placed individually in the open field for 3 minutes, in which two identical objects (plastic bottles, 12.5 cm height×5.5 cm diameter) covered in yellow masking tape alone (a1 and a2) were positioned in two adjacent corners, 10 cm. from the walls. After 24 hours of the (T1) trial for long-term memory test, the same rats were placed in the same arena as they were placed in (T1) trial. Choice phase (T2) rats were allowed to explore the open field for 3 minutes in presence of one familiar object (a3) and one novel object (b) (Amber color glass bottle, 12 cm high and 5 cm in diameter). Familiar objects presented similar textures, colors and sizes. During the T1 and T2 trial, explorations of each object (defined as sniffing, licking, chewing or having moving vibrissae whilst directing the nose towards the object at a distance of less than 1 cm) were recorded separately by stopwatch. Sitting on an object was not regarded as exploratory activity, however, it was rarely observed.
T1 is the total time spent exploring the familiar objects (a 1+a2).
T2 is the total time spent exploring the familiar object and novel object (a3+b).
The object recognition test was performed as described by Ennaceur, A., Delacour, J., 1988, A new one-trial test for neurobiological studies of memory in rats—Behavioural data, Behav. Brain Res., 31, 47-59.

[3] = Rodent pharmacokinetic study; assay type: in vivo; conditions: Wistar, rat, plasma, Wister/Male rats, 5 mg/kg; for bioavailability: Oral versus Intravenous; for AUC(0-t) / Cmax / Tmax / half-life: vehicle Water
Experimental: Male Wister rats (230-280 grams) obtained from NIN (National Institute of Nutrition, Hyderabad, India) was used as an experimental animal. Three to five animals were housed in each cage. One day prior to dosing day, male wistar rats (225-250 grams) were anesthetized with isoflurane for surgical placement of jugular vein catheter. Animals were kept fasted over night and maintained on a 12 hours light/dark cycle. Three rats were dosed NCE (5 mg/Kg) orally and intravenously on day 0 and day 2.
At each time point blood was collected by jugular vein. Plasma was stored frozen at −20° C. until analysis. The concentrations of the NCE compound in plasma were determined using LC-MS/MS method. Schedule time points: Pre dose 0.25, 0.5, 1, 1.5, 2, 3, 4, 6, 8, 10, 12 and 24 hours after dosing (n=3). The NCE compounds were quantified in plasma by validated LC-MS/MS method using solid phase extraction technique. NCE compounds were quantified in the calibration range of 2-2000 ng/mL in plasma. Study samples were analyzed using calibration samples in the batch and quality control samples spread across the batch.
Pharmacokinetic parameters Cmax, Tmax, AUCt, T1/2 and Bioavailability were calculated by non-compartmental model using software WinNonlin version 5.0.1.

[4] = target: T1, recombinant human 5-HT4 receptor (Homo sapiens, UniProt Q13639); assay: Determination of EC50 values for 5-HT4 receptor (CRE-luciferase reporter, CHO cells); assay type: cell-based; conditions: stable CHO cell line expressing recombinant human 5-HT4 receptor and pCRE-Luc reporter; 4 hours incubation; luciferase activity
T1 construct: expressed in transfected cells
Experimental: A stable CHO cell line expressing recombinant human 5-HT4 receptor and pCRE-Luc reporter system was used for cell-based assay. The assay offers a non-radioactive based approach to determine binding of a compound to GPCRs. In this specific assay, the level of intracellular cyclic AMP which is modulated by activation or inhibition of the receptor is measured. The recombinant cells harbor luciferase reporter gene under the control of cAMP response element.
The above cells were grown in 96 well clear bottom white plates in Hams F12 medium containing 10% fetal bovine serum (FBS). Prior to the addition of compounds or standard agonist, cells were serum starved overnight. Increasing concentrations of test compounds were added in OptiMEM medium to the cells. The incubation was continued at 37° C. in CO2 incubator for 4 hours. Medium was removed and cells were washed with phosphate buffered saline. The cells were lysed and luciferase activity was measured in a Luminometer. Luminescence units were plotted against the compound concentrations using Graphpad software. EC50 values of the compounds were defined as the concentration required in stimulating the luciferase activity by 50%.

T1 sequence (Q13639 whole entry): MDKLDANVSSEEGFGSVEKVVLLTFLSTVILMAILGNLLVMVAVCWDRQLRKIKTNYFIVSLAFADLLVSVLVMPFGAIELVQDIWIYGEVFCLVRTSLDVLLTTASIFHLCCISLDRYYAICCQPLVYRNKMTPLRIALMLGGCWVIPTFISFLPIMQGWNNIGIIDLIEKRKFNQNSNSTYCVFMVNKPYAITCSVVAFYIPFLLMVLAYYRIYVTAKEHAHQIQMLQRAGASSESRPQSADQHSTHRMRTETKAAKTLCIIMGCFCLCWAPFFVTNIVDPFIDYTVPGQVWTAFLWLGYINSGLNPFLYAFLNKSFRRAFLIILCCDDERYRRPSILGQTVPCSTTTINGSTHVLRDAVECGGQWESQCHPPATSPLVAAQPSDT

Structure (SMILES)	Kp [1]	Inference [2]	Exploration time mean ± S.E.M, Familiar object [2] [s]	Exploration time mean ± S.E.M, Novel object [2] [s]	bioavailability [3] [%]	AUC(0-t) ([3]; Intravenous) [ng·h/mL]	Cmax ([3]; Intravenous) [ng/mL]	Tmax ([3]; Intravenous) [h]	half-life ([3]; Intravenous) [h]	AUC(0-t) ([3]; Oral) [ng·h/mL]	Cmax ([3]; Oral) [ng/mL]	Tmax ([3]; Oral) [h]	half-life ([3]; Oral) [h]	EC50 [4] [nM]
CC(C)n1c(=O)c(C(=O)NCCCN2C3CC4CC(C3)CC2C4)c(O)c2ccccc21.Cl [Example 1, N-[(2-Azatricyclo[3.3.1.1^3,7]dec-2-yl)propyl]-4-hydroxy-1-isopropyl-2-oxo-1,2-dihydroquinoline-3-carboxamide hydrochloride]	0.2 ± 0.04	Active	7.87 ± 0.83	12.56 ± 1.31	26 ± 11	3020 ± 980	1170 ± 241	0.08	1.88 ± 1.15	801 ± 105	211 ± 32	0.83 ± 0.29	2.37 ± 0.6	230
CC(C)n1c(=O)c(C(=O)NCCCN2C3CC4CC2CC(O)(C4)C3)c(O)c2ccccc21 [Example 4, N-[(5-Hydroxy-2-azatricyclo[3.3.1.1^3,7]dec-2-yl)propyl]-4-hydroxy-1-isopropyl-2-oxo-1,2-dihydroquinoline-3-carboxamide]	0.66 ± 0.1	Active	6.72 ± 1.92	11.86 ± 1.65	34 ± 6	1660 ± 498	803 ± 62	0.08	2.64 ± 0.89	547 ± 126	216 ± 78	0.33	1.8 ± 0.36	421
